Where a SMILES comes first, the peptide text is derived from it. [ ]: non-standard residue; d: D form. The star is where a group is joined. NHCH2CH2OH = OCCN*; For = O=C*
Assays:
[1] = system: Streptococcus pyogenes SSI-9; experiment: Antibacterial activity assay of bead-derived peptides (three concentrations); format: cell-based; design: key: +++: inhibition by the 640-fold diluted peptide solution; ++: inhibition by the 160-fold diluted solution; +: inhibition by the 40-fold diluted solution; -: no inhibition; details: S. pyogenes, bead-derived peptide solution, three concentrations
Summary of the method: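 Undiluted, 4-fold and 16-fold DMSO-diluted peptide stocks; S. pyogenes SSI-9, 2 × 10^5 CFU, cation-adjusted MHB (50 mg/L Ca2+, 25 mg/L Mg2+) + 5% laked horse blood; 37 °C, 18 h; readout = cell pellet visible or not.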

[2] = H+/Na+ transport assay of bead-derived peptides (one-point); format: biochemical; design: key: relative activity; mean of two control wells = 1.00; details: bead-derived peptide solution, EYPC/EYPG LUVs;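 note: relative to parent gramicidin A activity set to 1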
Summary of the method: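 One-point screen: peptide + pyranine-loaded LUVs, 30 min RT with vortexing, 96-well. Read-out is fluorescence intensity scaled as 100 × (Ix – I0)/(Imax – I0). Imax from Triton X-100, I0 from untreated vesicles, and the mean of the two control wells is set to 1.00.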

[3] = cell viability/%
Summary of the method: (§1)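 P388 cells at 1 × 10^4 cells/mL (final) were exposed to library peptides (stocks diluted 250-fold in RPMI1640/10% FBS) for 92 h at 37 °C, 5% CO2. Viable cells were counted by WST-1/1-methoxy PMS (4 h), absorbance 415 nm, and expressed as cell viability (%).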

[4] = system: P388 mouse leukemia cells; details: 92 h
Summary of the method: as §1

Row | SMILES | antibacterial activity [1] | H+/Na+ transport activity normalized against the value of 1 (1.00) [2] | viability [3] [%] | cell viability/% [4] [%]
1 | CNC(=O)C[C@@H](NC(=O)[C@@H](NC(=O)[C@@H](CC(C)C)NC(=O)[C@H](C)NC(=O)[C@@H](CC(C)C)NC(=O)[C@H](C)NC(=O)CNC(=O)[C@@H](NC=O)C(C)C)C(C)C)C(=O)N[C@@H](Cc1c[nH]c2ccccc12)C(=O)N[C@H](CC(C)C)C(=O)N[C@@H](Cc1c[nH]c2ccccc12)C(=O)N[C@@H](C(=O)N[C@@H](Cc1c[nH]c2ccccc12)C(=O)N[C@@H](C(=O)N[C@@H](Cc1c[nH]c2ccccc12)C(=O)NCCO)C(C)C)C(C)C [compound 10379] (For-VGA[dL]A[dL]V[dD](NHMe)W[dL]W[dV]W[dV]W-NHCH2CH2OH) | - | 1.08 | 100 | 
2 | CC(C)C[C@@H](NC(=O)[C@H](C)NC(=O)CNC(=O)[C@@H](NC=O)C(C)C)C(=O)N[C@@H](C)C(=O)N[C@@H](C(=O)N[C@H](C(=O)N[C@@H](C(=O)N[C@@H](Cc1c[nH]c2ccccc12)C(=O)N[C@@H](C(=O)N[C@@H](Cc1c[nH]c2ccccc12)C(=O)N[C@@H](C(=O)N[C@@H](Cc1c[nH]c2ccccc12)C(=O)N[C@@H](C(=O)N[C@@H](Cc1c[nH]c2ccccc12)C(=O)NCCO)C(C)C)C(C)C)C(C)C)[C@H](C)O)C(C)C)C(C)C [compound 1520] (For-VGA[dL]A[dV]V[dT]W[dV]W[dV]W[dV]W-NHCH2CH2OH) | - | 1.04 | 100 | 
3 | CNC(=O)C[C@@H](NC(=O)[C@@H](NC(=O)[C@H](NC(=O)[C@H](C)NC(=O)[C@@H](CC(C)C)NC(=O)[C@H](C)NC(=O)CNC(=O)[C@@H](NC=O)C(C)C)C(C)C)C(C)C)C(=O)N[C@@H](Cc1c[nH]c2ccccc12)C(=O)N[C@H](CC(C)C)C(=O)N[C@@H](Cc1c[nH]c2ccccc12)C(=O)N[C@@H](C(=O)N[C@@H](Cc1c[nH]c2ccccc12)C(=O)N[C@@H](C(=O)N[C@@H](Cc1c[nH]c2ccccc12)C(=O)NCCO)C(C)C)C(C)C [compound 2195] (For-VGA[dL]A[dV]V[dD](NHMe)W[dL]W[dV]W[dV]W-NHCH2CH2OH) | - | 1.34 | 100 | 
4 | CC(C)C[C@@H](NC(=O)[C@H](Cc1c[nH]c2ccccc12)NC(=O)[C@H](NC(=O)[C@H](Cc1c[nH]c2ccccc12)NC(=O)[C@H](NC(=O)[C@@H](NC(=O)[C@H](NC(=O)[C@H](C)NC(=O)[C@H](NC(=O)[C@H](C)NC(=O)CNC(=O)[C@@H](NC=O)C(C)C)[C@H](C)O)C(C)C)C(C)C)C(C)C)[C@H](C)O)C(=O)N[C@@H](Cc1c[nH]c2ccccc12)C(=O)N[C@@H](C(=O)N[C@@H](Cc1c[nH]c2ccccc12)C(=O)NCCO)C(C)C [compound 12629] (For-VGA[dT]A[dV]V[dV]W[dT]W[dL]W[dV]W-NHCH2CH2OH) | - | 1.01 | 100 | 
5 | CC(C)C[C@@H](NC(=O)[C@H](C)NC(=O)[C@H](NC(=O)[C@H](C)NC(=O)CNC(=O)[C@@H](NC=O)C(C)C)C(C)C)C(=O)N[C@H](C(=O)N[C@@H](C(=O)N[C@@H](Cc1c[nH]c2ccccc12)C(=O)N[C@H](CC(C)C)C(=O)N[C@@H](Cc1c[nH]c2ccccc12)C(=O)N[C@H](CC(C)C)C(=O)N[C@@H](Cc1c[nH]c2ccccc12)C(=O)N[C@H](CC(C)C)C(=O)N[C@@H](Cc1c[nH]c2ccccc12)C(=O)NCCO)[C@H](C)O)C(C)C [compound 3956] (For-VGA[dV]A[dL]V[dT]W[dL]W[dL]W[dL]W-NHCH2CH2OH) | + | 1.12 | 100 | 
6 | CC(C)C[C@@H](NC(=O)[C@H](C)NC(=O)CNC(=O)[C@@H](NC=O)C(C)C)C(=O)N[C@@H](C)C(=O)N[C@H](CC(C)C)C(=O)N[C@H](C(=O)N[C@@H](C(=O)N[C@@H](Cc1c[nH]c2ccccc12)C(=O)N[C@H](CC(C)C)C(=O)N[C@@H](Cc1c[nH]c2ccccc12)C(=O)N[C@@H](C(=O)N[C@@H](Cc1c[nH]c2ccccc12)C(=O)N[C@@H](C(=O)N[C@@H](Cc1c[nH]c2ccccc12)C(=O)NCCO)C(C)C)[C@H](C)O)C(C)C)C(C)C [compound 65] (For-VGA[dL]A[dL]V[dV]W[dL]W[dT]W[dV]W-NHCH2CH2OH) | + | 1.08 | 100 | 
7 | CNC(=O)C[C@@H](NC(=O)[C@H](Cc1c[nH]c2ccccc12)NC(=O)[C@H](NC(=O)[C@H](Cc1c[nH]c2ccccc12)NC(=O)[C@@H](CC(C)C)NC(=O)[C@@H](NC(=O)[C@@H](CC(C)C)NC(=O)[C@H](C)NC(=O)[C@@H](CC(C)C)NC(=O)[C@H](C)NC(=O)CNC(=O)[C@@H](NC=O)C(C)C)C(C)C)C(C)C)C(=O)N[C@@H](Cc1c[nH]c2ccccc12)C(=O)N[C@@H](C(=O)N[C@@H](Cc1c[nH]c2ccccc12)C(=O)NCCO)[C@H](C)O [compound 3885] (For-VGA[dL]A[dL]V[dL]W[dV]W[dD](NHMe)W[dT]W-NHCH2CH2OH) | - | 1.00 | 100 | 
8 | CC(C)C[C@@H](NC(=O)[C@H](C)NC(=O)[C@H](NC(=O)[C@H](C)NC(=O)CNC(=O)[C@@H](NC=O)C(C)C)[C@H](C)O)C(=O)N[C@H](C(=O)N[C@@H](C(=O)N[C@@H](Cc1c[nH]c2ccccc12)C(=O)N[C@@H](C(=O)N[C@@H](Cc1c[nH]c2ccccc12)C(=O)N[C@H](CC(C)C)C(=O)N[C@@H](Cc1c[nH]c2ccccc12)C(=O)N[C@@H](C(=O)N[C@@H](Cc1c[nH]c2ccccc12)C(=O)NCCO)C(C)C)[C@H](C)O)C(C)C)C(C)C [compound 10338] (For-VGA[dT]A[dL]V[dV]W[dT]W[dL]W[dV]W-NHCH2CH2OH) | - | 1.01 | 100 | 
9 | CC(C)C[C@@H](NC(=O)[C@H](C)NC(=O)CNC(=O)[C@@H](NC=O)C(C)C)C(=O)N[C@@H](C)C(=O)N[C@@H](C(=O)N[C@H](C(=O)N[C@@H](C(=O)N[C@@H](Cc1c[nH]c2ccccc12)C(=O)N[C@H](CC(C)C)C(=O)N[C@@H](Cc1c[nH]c2ccccc12)C(=O)N[C@@H](C(=O)N[C@@H](Cc1c[nH]c2ccccc12)C(=O)N[C@@H](C(=O)N[C@@H](Cc1c[nH]c2ccccc12)C(=O)NCCO)[C@H](C)O)C(C)C)C(C)C)C(C)C)C(C)C [compound 7010] (For-VGA[dL]A[dV]V[dV]W[dL]W[dV]W[dT]W-NHCH2CH2OH) | + | 1.07 | 100 | 
10 | CC(C)C[C@@H](NC(=O)[C@H](C)NC(=O)CNC(=O)[C@@H](NC=O)C(C)C)C(=O)N[C@@H](C)C(=O)N[C@@H](C(=O)N[C@H](C(=O)N[C@@H](C(=O)N[C@@H](Cc1c[nH]c2ccccc12)C(=O)N[C@H](CC(C)C)C(=O)N[C@@H](Cc1c[nH]c2ccccc12)C(=O)N[C@H](CC(C)C)C(=O)N[C@@H](Cc1c[nH]c2ccccc12)C(=O)N[C@@H](C(=O)N[C@@H](Cc1c[nH]c2ccccc12)C(=O)NCCO)C(C)C)[C@H](C)O)C(C)C)C(C)C [compound 200] (For-VGA[dL]A[dV]V[dT]W[dL]W[dL]W[dV]W-NHCH2CH2OH) | + | 1.04 | 100 | 
11 | CC(C)C[C@@H](NC(=O)[C@H](C)NC(=O)[C@H](NC(=O)[C@H](C)NC(=O)CNC(=O)[C@@H](NC=O)C(C)C)C(C)C)C(=O)N[C@H](C(=O)N[C@@H](C(=O)N[C@@H](Cc1c[nH]c2ccccc12)C(=O)N[C@@H](C(=O)N[C@@H](Cc1c[nH]c2ccccc12)C(=O)N[C@@H](C(=O)N[C@@H](Cc1c[nH]c2ccccc12)C(=O)N[C@H](CC(C)C)C(=O)N[C@@H](Cc1c[nH]c2ccccc12)C(=O)NCCO)[C@H](C)O)C(C)C)C(C)C)C(C)C [compound 2727] (For-VGA[dV]A[dL]V[dV]W[dV]W[dT]W[dL]W-NHCH2CH2OH) | - | 1.05 | 100 | 
12 | CC(C)C[C@@H](NC(=O)[C@H](C)NC(=O)CNC(=O)[C@@H](NC=O)C(C)C)C(=O)N[C@@H](C)C(=O)N[C@H](CC(C)C)C(=O)N[C@H](C(=O)N[C@@H](C(=O)N[C@@H](Cc1c[nH]c2ccccc12)C(=O)N[C@@H](C(=O)N[C@@H](Cc1c[nH]c2ccccc12)C(=O)N[C@H](CC(C)C)C(=O)N[C@@H](Cc1c[nH]c2ccccc12)C(=O)N[C@H](CC(C)C)C(=O)N[C@@H](Cc1c[nH]c2ccccc12)C(=O)NCCO)C(C)C)C(C)C)C(C)C [compound 7198] (For-VGA[dL]A[dL]V[dV]W[dV]W[dL]W[dL]W-NHCH2CH2OH) | + | 1.09 |  | 16.1
13 | CC(C)C[C@@H](NC(=O)[C@H](C)NC(=O)[C@H](NC(=O)[C@H](C)NC(=O)CNC(=O)[C@@H](NC=O)C(C)C)[C@H](C)O)C(=O)N[C@H](C(=O)N[C@H](CC(C)C)C(=O)N[C@@H](Cc1c[nH]c2ccccc12)C(=O)N[C@H](CC(C)C)C(=O)N[C@@H](Cc1c[nH]c2ccccc12)C(=O)N[C@@H](C(=O)N[C@@H](Cc1c[nH]c2ccccc12)C(=O)N[C@@H](C(=O)N[C@@H](Cc1c[nH]c2ccccc12)C(=O)NCCO)C(C)C)C(C)C)C(C)C [compound 569] (For-VGA[dT]A[dL]V[dL]W[dL]W[dV]W[dV]W-NHCH2CH2OH) | - | 1.01 |  | 100.0
